The subject of one data set is L1210. In words: In vitro cytotoxicity, tetrazolium microculture assay, L1210. The class given is cell-based. As to conditions: Mus musculus, 48 h; L1210 murine leukaemia, incubated for 2 days; read-out: IC50, the concentration of cytotoxic compound that inhibits the proliferation of the treated cells by 50%. The procedure: (§1) Two cell lines were used: • 1 murine leukaemia, L1210, • 1 human epidermoid carcinoma: KB-3-1
(§2) The cells are cultured in RPMI 1640 complete culture medium comprising 10% fcetal calf serum, 2 mM glutamine, 50 units/ml of penicillin, 50 μg/ml of streptomycin and 10 mM Hepes, pH 7.4. The cells are distributed on microplates and are exposed to the cytotoxic compounds. The cells are then incubated for 2 days (L1210) or 4 days (KB-3-1) in an incubator at 37° C. in the presence of 5% CO2. The number of viable cells is then quantified by a colorimetric assay, the tetrazolium microculture assay (Cancer Res. 1987, 47, 939-942).
(§3) The results are expressed as IC50, the concentration of cytotoxic compound that inhibits the proliferation of the treated cells by 50%.

Another data set has as its system KB-3-1. In words: In vitro cytotoxicity, tetrazolium microculture assay, KB-3-1. The class given is cell-based. As to conditions: 96 h; KB-3-1 human epidermoid carcinoma, incubated for 4 days; read-out: IC50, the concentration of cytotoxic compound that inhibits the proliferation of the treated cells by 50%. The procedure:
as §1, §2, §3

For `COc1cc2c(c3c1c(=O)c1cc4ccccc4nc1n3C)[C@@H](OC(C)=O)[C@@H](OC(C)=O)C(C)(C)O2` (racemic) [Example 4, (±)-cis-1,2-Diacetoxy-6methoxy-3,3,14-trimethyl-1,2,3,14-tetrahydro-7H-benzo[b]chromeno[6,5-g][1,8]naphthyridin-7-one], the melting point amounted to 244 °C. Moreover, the IC50 with L1210 is 320 nM. The IC50 with KB-3-1 is 37 nM. As for `COc1cc2c(c3c1c(=O)c1cc4ccccc4nc1n3C)C=CC(C)(C)O2` [Example 2, 6-Methoxy-3,3,14-trimethyl-3,14-dihydro-7H-benzo[b]chromeno-[6,5-g][1,8]naphthyridin-7-one], the melting point is 270 °C. Molecule `COc1cc2c(c3c1c(=O)c1cc4ccccc4nc1n3C)[C@H]1OC(=O)O[C@H]1C(C)(C)O2` (racemic) [Example 5, (±)-cis-7-Methoxy-4,4,15-trimethyl-15,15c-dihydro-4H-benzo[b][1,3]-dioxolo[4′,5′:3,4]chromeno[6,5-g][1,8]naphthyridin-2,8[3aH]-dione] came in with a melting point of 234 °C.

`COc1cc2c(c3c1c(=O)c1cc4ccccc4nc1n3C)[C@@H](O)[C@@H](O)C(C)(C)O2` (racemic) [Example 3, (±)-cis-1,2-Dihydroxy-6-methoxy-3,3,14-trimethyl-1,2,3,14-tetrahydro-7H-benzo[b]chromeno[6,5-g][1,8]naphthyridin-7-one] returned a melting point of 298 °C. Still for that read-out and setting: next, `Cn1c2nc3ccccc3cc2c(=O)c2c(O)cc3c(c21)C=CC(C)(C)O3` [Example 1, 6-Hydroxy-3,3,14-trimethyl-3,14-dihydro-7H-benzo-[b]chromeno-[6,5-g][1,8]naphthyridin-7-one]: 278 °C.

(Values after patent publication US7741325B2, “Benzo[b]chromeno-naphthyridin-7-one and pyrano[2′,3′:7,8]quino[2,3-b]quinoxalin-7-one compounds” (priority 2004, dated 2010).)
